Values of other authors in patent publication US7033983B2, “Detergent compositions” (Unilever Home and Personal Care USA a division of Conopco, …, priority 2002, dated 2006).

Settings: highly water-soluble materials; saturated solution in 100 g deionised water at 20° C.

## NC(N)=O [Urea]
  Water Solubility: >100 g/100 g
